{"source": "BindingDB's records for patent US10150764", "about": "(Epizyme, 2018)", "key": {"[1]": {"molecular_target": "Histone-lysine N-methyltransferase EZH2 [Y641F] (Homo sapiens, UniProt Q15910, Y641F)", "sequence (Q15910 whole entry Y641F)": "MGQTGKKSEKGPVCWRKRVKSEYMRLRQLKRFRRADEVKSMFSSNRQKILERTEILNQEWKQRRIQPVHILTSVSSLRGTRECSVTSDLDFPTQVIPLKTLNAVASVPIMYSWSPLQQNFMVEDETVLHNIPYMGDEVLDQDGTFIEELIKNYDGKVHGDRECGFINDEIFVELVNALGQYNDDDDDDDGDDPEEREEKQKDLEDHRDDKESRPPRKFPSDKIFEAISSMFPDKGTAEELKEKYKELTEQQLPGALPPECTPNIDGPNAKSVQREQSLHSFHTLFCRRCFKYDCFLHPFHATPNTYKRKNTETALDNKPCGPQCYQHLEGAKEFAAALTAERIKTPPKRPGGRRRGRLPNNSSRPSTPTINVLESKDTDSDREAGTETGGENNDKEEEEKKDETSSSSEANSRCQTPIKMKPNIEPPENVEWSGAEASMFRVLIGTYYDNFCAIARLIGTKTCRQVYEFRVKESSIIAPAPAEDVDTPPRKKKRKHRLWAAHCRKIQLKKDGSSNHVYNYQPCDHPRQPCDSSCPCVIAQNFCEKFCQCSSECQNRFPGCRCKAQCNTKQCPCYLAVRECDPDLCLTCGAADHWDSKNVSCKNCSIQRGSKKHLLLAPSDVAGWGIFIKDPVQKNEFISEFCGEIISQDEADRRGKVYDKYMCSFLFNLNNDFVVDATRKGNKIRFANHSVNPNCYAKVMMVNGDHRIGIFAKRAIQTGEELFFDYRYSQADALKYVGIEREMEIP", "assay": "Wild-Type PRC2 Enzyme Assay", "procedure": "(§1) The assays were performed in a buffer consisting of 20 mM bicine (pH=7.6), 0.5 mM DTT, 0.005% BSG, 100 mM KCl and 0.002% Tween20, prepared on the day of use. […] DMSO (1 μL) was added to columns 11, 12, 23, 24, rows A-H for the maximum signal control, and SAH, a known product and inhibitor of PRC2 (1 μL) was added to columns 11, 12, 23, 24, rows I-P for the minimum signal control. A cocktail (40 μL) containing the wild-type PRC2 enzyme and chicken erythrocyte oligonucleosome was added by Multidrop Combi (Thermo). The compounds were allowed to incubate with PRC2 for 30 min at 25° C., then a cocktail (10 μL) containing a mixture of non-radioactive and 3H-SAM was added to initiate the reaction (final volume=51 μL). […] The assay was stopped by the addition of non-radioactive SAM (10 μL) to a final concentration of 600 μM, which dilutes the 3H-SAM to a level where its incorporation into the chicken erythrocyte olignonucleosome substrate is no longer detectable. […] The plates were then read in a PerkinElmer TopCount platereader to measure the quantity of 3H-labeled chicken erythrocyte oligonucleosome bound to the Flashplate surface, measured as disintegrations per minute (dpm) or alternatively, referred to as counts per minute (cpm)."}, "[2]": {"molecular_target": "Histone-lysine N-methyltransferase EZH2 (Homo sapiens, UniProt Q15910)", "sequence (Q15910 whole entry)": "as the sequence (Q15910 whole entry Y641F) above, with F641Y counted along it", "assay": "Wild-Type PRC2 Enzyme Assay", "procedure": "as §1"}}, "note": "pIC50: −log10 of the molar value.", "data": [{"smiles": "CCN(c1cc(Cl)cc(C(=O)NCc2c(C)cc3cc[nH]n3c2=O)c1C)[C@H]1CC[C@H](N(C)C)CC1", "note": "[US10150764, Compound 2]", "values": [{"measurement": "pIC50", "setting": "[1]", "value": 5.08}, {"measurement": "pIC50", "setting": "[2]", "value": 4.82}]}]}
